Assays:
Test in all cases: Paper disk diffusion antibacterial test
Type in all cases: cell-based
[1] = tested on: Pseudomonas aeruginosa ATCC 27853
Protocol: (§1) In Vitro antimicrobial activity was evaluated using both gram-positive and gram-negative bacterial strains. The results reproduced here are exemplary and may include other microorganisms such as Escherichia coli, Listeria monocytogenes, Lactobacillus, yeast, vancomycin-resistant Enterococcus, molds, and spores. The in vitro antibacterial activity was evaluated for. gram-positive bacteria (Staphylococcus aureus ATCC 29213 and Staphylococcus epidermidis ATCC 12228) and gram-negative bacteria (Pseudomonas aeruginosa ATCC 27853) obtained from King Fahd Hospital, AlKhobar, Saudi Arabia.
(§2) Antimicrobial activity of three imidazopyrazole derivatives (1), (2) and (3) were evaluated qualitatively by paper disk diffusion method [CLSI.; Approved Standard, 11th ed.; CLSI document M02-A11; Clinical and Laboratory Standards Institute: Wayne, PA, USA, 2012, incorporated herein by reference in its entirety]. The three chemical materials i.e. compounds (1), (2) and (3) were prepared in different concentrations as follows: 0.01, 0.02, 0.03, 0.05, and 0.1 g/mL in dimethyl sulfoxide (DMSO) and tested directly. Paper discs measured 6 mm in diameter were soaked separately with 100 μL of the chemical materials and were left to dry. Bacterial inoculums were prepared from previous cultures in Muller-Hinton broth. The bacterial cell suspension turbidity was adjusted to a 0.5 McFarland standard, which represented approximately 1-2×10^8 colony-forming units (CFU)/mL using a Biomerieux DensiCHEK plus meter device (Missouri, MO, USA). Bacterial inoculums at 0.5 mL were transferred to petri plates under sterilized conditions. Melted Muller-Hinton agar at approximately 50° C. was poured over the inoculums, and to ensure even distribution of the inoculums, the plates were rotated neatly, then cultures were left to harden for 5 min. Then, previously prepared paper discs, saturated with chemicals, were transferred, using sterilized forceps, to the surface of petri plates that contained the bacterial cultures. Gentamicin (CN10 μg), aminoglycosides antibiotic was used as the positive control and DMSO was used as the negative control. The petri plates were placed in the refrigerator (General Electric, Medford, MA, USA) to allow diffusion of the chemicals into the agar for an hour. Then the petri plates were incubated at 37° C. for 24 h. After the incubation period ended, the area of inhibition around the discs was measured with a ruler. Three replicants were made to ensure the accuracy of the experiment.

[2] = tested on: Staphylococcus aureus ATCC 29213
Protocol: as §1, §2

[3] = tested on: Staphylococcus epidermidis ATCC 12228
Protocol: as §1, §2

[4] = 0.05 g/mL in DMSO, 6 mm paper disc, 37° C. 24 h
[5] = 0.1 g/mL in DMSO, 6 mm paper disc, 37° C. 24 h

## CC1=NN(c2ccccc2)C2=NC(=S)NC12 (stereo not shown) [(1), 3-Methyl-1-Phenyl-3a,4-Dihydro Imidazo(4,5-c) Pyrazole-5(1H)-Thione]
[1]; [4]
  zone of inhibition (mm) means ± SD: 10.0 ± 1.0 mm
[1]; [5]
  zone of inhibition (mm) means ± SD: 11.0 ± 1.0 mm
[2]; [4]
  zone of inhibition (mm) means ± SD: 7.7 ± 0.6 mm
[2]; [5]
  zone of inhibition (mm) means ± SD: 9.0 ± 1.0 mm
[3]; [4]
  zone of inhibition (mm) means ± SD: 8.3 ± 0.6 mm
[3]; [5]
  zone of inhibition (mm) means ± SD: 8.3 ± 0. mm

## Gentamicin [reference compound]
[1]; positive control, CN10 μg disc
  zone of inhibition (mm) means ± SD: 20.7 ± 1.2 mm
[2]; positive control, CN10 μg disc
  zone of inhibition (mm) means ± SD: 18.7 ± 1.5 mm
[3]; positive control, CN10 μg disc
  zone of inhibition (mm) means ± SD: 21.3 ± 1.2 mm

## CC1=NN(c2ccccc2)C2=NC(NC(N)=S)=NC12 (stereo not shown) [(2), 1-(3-Methyl-1-Phenyl-1,3a-Dihydroimidazo[4,5-c] Pyrazol-5-yl) Thiourea]
[1]; [4]
  zone of inhibition (mm) means ± SD: 7.7 ± 0.6 mm
[1]; [5]
  zone of inhibition (mm) means ± SD: 8.3 ± 0.6 mm
[2]; [4]
  zone of inhibition (mm) means ± SD: 18.0 ± 0.0 mm
[2]; [5]
  zone of inhibition (mm) means ± SD: 18.7 ± 0.6 mm
[2]; at the concentrations 0.05 g/mL and 0.01 g/mL, gentamicin CN10 μg
  area of inhibition zone compared with positive control gentamicin: equal to gentamicin
[3]; [4]
  zone of inhibition (mm) means ± SD: 8.3 ± 0.6 mm
[3]; [5]
  zone of inhibition (mm) means ± SD: 9.3 ± 0.6 mm

## CCOC(=O)CSC1=NC2C(C)=NN(c3ccccc3)C2=N1 (stereo not shown) [(3), Ethyl 2-((3-Methyl-1-Phenyl-1,3adihydroimidazo[4,5-c] Pyrazol-5-yl)thio) Acetate]
[1]; [4]
  zone of inhibition (mm) means ± SD: 7.3 ± 0.6 mm
[1]; [5]
  zone of inhibition (mm) means ± SD: 7.3 ± 0.6 mm
[2]; [4]
  zone of inhibition (mm) means ± SD: 7.3 ± 0.6 mm
[2]; [5]
  zone of inhibition (mm) means ± SD: 8.7 ± 0.6 mm
[3]; [4]
  zone of inhibition (mm) means ± SD: 7.3 ± 0.6 mm
[3]; [5]
  zone of inhibition (mm) means ± SD: 8.7 ± 0.6 mm
